Test results from patent publication US12168673B2 (Mitopower, Inc., priority 2022, dated 2024).

What was measured:
[1] = Human plasma protein binding (RED dialysis); details: human, plasma, human plasma, 10 μM, 5 hours dialysis
Experimental: The test compounds were weighed and prepared as 10 mM stocks in 100% DMSO. 10 μM is the final test concentration for all compounds.
The samples were prepared by spiking test compound(s) in plasma at 10 μM final concentration. 200 μL of plasma containing the test compound was added into the donor well (RED Chamber) of the insert. Simultaneously 350 μL of dialysis buffer (1×PBS) was added into the receiver well (white chamber). Two measurements were made for each test compound. The plate was covered with a sealer and incubated at 37° C. degrees on an orbital shaker at 500 rpm for 5 hours.
After incubation, 25 μl of plasma (RED chamber) and 25 μl of buffer (white chamber) samples were separately collected into separate centrifugation tubes. Plasma and buffer samples were precipitated with 200 μL of 100% acetonitrile containing internal standards. 25 μl of T0 (T Zero) plasma samples (samples before 5 hours incubation) were collected (To samples were processed immediately after the preparation of plasma working stock solution. These samples serve as a measure for calculating the percentage recovery of the test compound and precipitated using 100% acetonitrile containing internal standards). The samples were vortexed at 1000 rpm for 5 min and centrifuged at 4000 rpm for 10 min. The supernatant was diluted 2-fold with water and injected into LC-MS/MS.
The % of Plasma bound/unbound fraction was calculated by the following equation: % Unbound or % free=100*(Fc/Tc); % Recovery=100 (Fc+Tc)/[…] where Tc=Total compound concentration as determined by the calculated concentration on the plasma side of the membrane (concentration in plasma chamber), Fc=Free compound concentration as determined by the calculated concentration on the buffer side of the membrane (concentration in buffer chamber) and T0=Total compound concentration as determined before dialysis.

[2] = Distribution in kidney and liver tissue after 24 hrs in rats; details: compared with nicotinic acid
[3] = test system: cisplatin induced acute kidney injury (AKI) mouse model; experiment: Cisplatin induced kidney injury model in mice; type: in vivo, BALB/c female mice
Experimental: The study was performed using protocols approved by the Institutional Animal Ethics Committee (IAEC) based on CPCSEA guidelines for animal care and use. BALB/c female mice of 6-8 weeks age were divided into 5 groups with each group containing 6 members. Animal room environment were monitored for temperature and relative humidity twice a day. The temperature range was 22° C.±3° C. and the humidity range was 30-70%, although the upper range for humidity may be exceeded during room cleaning. Animals were housed in IVC systems and provided with cycles of 12 hours of light and 12 hours of darkness through the study. SDS Feed (M/s. SDS diets services) and autoclaved drinking water was provided ad libitum.
The vehicle for cisplatin was 0.9% saline while the vehicle for compound 100 was PBS at pH 6. The compound 100 formulations were prepared just prior to doing each time. The study was performed in 5 groups.
Animals were acclimatized prior to the study. Pretreatment with compound 100 was administered for 3 days before cisplatin dosing. Animals were weighed and administered vehicle in group 1 and cisplatin was administered at a single dose of 25 mg/kg to groups 2, 3, 4 and 5 intraperitonially on day-3 of the study. The oral dose groups (groups 3-5) were dosed with compound 100 twice daily for 6 days (3 days pre-dose and 3 days post-dose cisplatin).
Blood samples were collected at end of the study (12 h, post last dose terminal sampling, cardiac puncture) in 2 ml Eppendorf tubes, and serum was separated and stored at −20° C. for clinical chemistry analysis.
All animals survived and were sacrificed at end of the study (12 hours post last test compound dose) with an overdose of CO2. […] Serum creatinine and blood urea nitrogen (BUN) was determined using a clinical chemistry analyzer on the final day of blood collection and the results are graphically illustrated for groups 1-5 in FIG. 13 and FIG. 14, respectively.

[4] = mice, 50, 250 and 500 mg/kg PO twice daily for 6 days, cisplatin 25 mg/kg IP, p<0.05

Row | SMILES | fraction unbound at 5 h, 10 μM ([1]; % Bound in plasma) | fraction unbound at 5 h, 10 μM ([1]; % Unbound in plasma) | fraction unbound at 5 h, 10 μM ([1]; Fraction unbound) | delivery of nicotinic acid into the tissues [2] | BUN compared to group 2 (cisplatin only) [3, 4] | serum creatinine compared to group 2 (cisplatin only) [3, 4] | nephroprotection (conclusion) ([3]; mice, all three oral doses)
1 | COC(=O)[C@@H](C)NP(=O)(OC[C@H]1OC(OC(=O)c2cccnc2)[C@H](O)[C@@H]1O)Oc1ccccc1 (stereo partly drawn) [Compound 101, (3R, 4S, 5R)-3,4-dihydroxy-5-(((((1-methoxy-1-oxopropan-2-yl)amino)(phenoxy)phosphoryl)oxy)methyl)tetrahydrofuran-2-yl nicotinate] | 0.306 | 0.306 | 0.31 |  |  |  | 
2 | O=C(OC1O[C@H](CO)[C@@H](O)[C@H]1O)c1cccnc1 (stereo partly drawn) [Compound 100, (3R, 4S, 5R)-3,4-dihydroxy-5-(hydroxymethyl) tetrahydrofuran-2-yl nicotinate] |  |  |  | more efficiently than nicotinic acid | significant reduction | significant reduction | nephroprotection
